One assay has as its target T1, Mouse α4 GlyR (Mus musculus, UniProt Q61603).
T1 construct: gene Glra4; full-length wild-type cDNA from whole brain in pRK5, homomeric pentamer, HEK293 cells
T1 sequence (Q61603 28-456): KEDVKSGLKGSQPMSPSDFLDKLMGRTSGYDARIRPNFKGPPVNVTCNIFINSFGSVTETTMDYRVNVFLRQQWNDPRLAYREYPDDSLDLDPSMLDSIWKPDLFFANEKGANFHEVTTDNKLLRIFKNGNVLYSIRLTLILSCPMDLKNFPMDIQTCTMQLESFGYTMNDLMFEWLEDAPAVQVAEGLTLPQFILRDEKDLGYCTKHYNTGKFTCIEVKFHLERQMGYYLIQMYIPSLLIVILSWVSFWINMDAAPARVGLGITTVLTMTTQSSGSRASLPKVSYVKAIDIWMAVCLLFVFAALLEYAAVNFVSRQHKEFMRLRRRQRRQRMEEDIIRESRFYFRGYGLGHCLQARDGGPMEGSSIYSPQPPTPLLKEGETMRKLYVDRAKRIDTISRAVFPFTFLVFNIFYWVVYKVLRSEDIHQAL
The assay is described as follows: whole-cell patch clamp, Hill fit. Format: cell-based. The text has this:
whole-cell patch clamp, Hill fit on Mouse α4 GlyR
In general terms: Patch clamp records ionic current or voltage across a cell membrane.

The target in the next assay is T2, Gorilla α4 GlyR (Gorilla gorilla, UniProt G3RDJ8).
T2 construct: gene GLRA4; full-length synthetic predicted cDNA in pRK5, homomeric pentamer, HEK293 cells
T2 sequence (G3RDJ8 29-457): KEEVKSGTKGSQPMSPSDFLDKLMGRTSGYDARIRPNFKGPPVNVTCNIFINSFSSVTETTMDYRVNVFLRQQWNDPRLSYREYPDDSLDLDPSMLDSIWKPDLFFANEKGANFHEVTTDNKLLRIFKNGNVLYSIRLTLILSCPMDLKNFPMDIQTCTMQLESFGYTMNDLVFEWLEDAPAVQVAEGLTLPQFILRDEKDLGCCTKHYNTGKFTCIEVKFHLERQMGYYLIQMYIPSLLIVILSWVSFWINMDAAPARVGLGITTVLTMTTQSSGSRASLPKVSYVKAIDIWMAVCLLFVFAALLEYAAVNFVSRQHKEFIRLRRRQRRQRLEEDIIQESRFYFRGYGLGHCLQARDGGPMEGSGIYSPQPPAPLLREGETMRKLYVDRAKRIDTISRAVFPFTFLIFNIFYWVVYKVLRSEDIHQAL
The assay is described as follows: whole-cell patch clamp, Hill fit. It is filed as cell-based. The text has this: whole-cell patch clamp, Hill fit on Gorilla α4 GlyR

The next assay has as its system T3, Human α4^K59E/C204Y + α1.
T3 construct: gene GLRA1
Conditions: agonist; -40 mV; pH 7.4; 22 °C. From the text: whole-cell patch clamp, Hill fit on Human α4^K59E/C204Y + α1

One may read the EC50 as the concentration needed to bring the measured effect to its halfway point. Take `NCC(=O)O` [glycine]: the EC50 on Mouse α4 GlyR amounted to 61 ± 10 µM; on Gorilla α4 GlyR, 86 ± 16 µM; in the assay on Human α4^K59E/C204Y + α1, 350 ± 29 µM.

These data come from paper PMC5797729, “Structure/Function Studies of the α4 Subunit Reveal Evolutionary Loss of a GlyR Subtype Involved in Startle and Escape Responses” (Frontiers in Molecular Neuroscience, 2018).
